Data taken from patent US5382525A, “Method of effecting increased performance of diagnostic enzyme reaction systems using noble gases” (American Air Liquide, priority 1992, dated 1995).

How the values were obtained:
[1] = target: T1, Urease EC 3.5.1.5 (Canavalia ensiformis, UniProt P07374); assay: Urea Nitrogen Diagnostic Kit (640) stop-flow gas run; type: biochemical, jack beans; conditions: 37° C.; relative to air
T1 construct: purchased Sigma 640-5; host or cells: jack beans
Text: Urea Nitrogen Diagnostic Kit (640) Protocol For Gas Run
Urea Nitrogen (Sigma Diagnostic Kit, Procedure No. 640)
Sigma No. 640-5 Buffered Urease from jack beans 100 units when prepared according to directions (3.33 units/ml). Sodium azide added as preservative. Store in refrigerator. Note expiration date: JUNE 1993
PRINCIPLE: Urea is hydrolyzed by urease to ammonia and carbon dioxide. [drawing 6] Ammonia then reacts with alkaline hypochlorite and phenol in the presence of a catalyst, sodium nitroprusside [Na2 Fe[CN]5 NO.2H2 O], to form indophenol. The concentration of ammonia is directly proportional to the absorbance of indophenol, which is measured spectrophotometrically at 570 nm. [drawing 7] Note: Ammonia free water (DI H2 O should be ok) is necessary for this procedure, Make sure to rinse everything with DI H2 O before use, If the blank has more than a trace of blue color ammonia contamination should be suspected.
PROCEDURE FOR STOP-FLOW GAS EXPERIMENT
In a 100 cc serum vial place 20 ml Urease soln (Soln A1). Stopper, seal and crimp. Bubble 400 ml of gas through (using the 500 ml gas-tight syringe). Superimpose 100 ml of gas, vial will be under positive pressure.
Sample 0.4 ml Urea Nitrogen Standard Solution 1 from gassed 3 cc vial. Add to the gassed 100 cc serum vial (containing 20 ml Soln A1). Start stop watch, gently swirl vial.
Take 0.5 ml samples every minute. Place the 0.5 ml sample into the corresponding 10 cc vial to stop the reaction. Inject immediately 1 ml Alkaline Hypochlorite Solution followed by 5 ml D.I. H2 O.
Let the 15×10 cc vials sit and develop color for 30 minutes. a 1 wavelength "scan" (see software) should be run: 3 ml per cuvette. Read vs a blank of 3 ml Soln B.
Spectrophotometric study procedure: 37° C.
(§1) The following consists of example results obtained from gas runs. Negative numbers indicate an inhibition of the enzyme activity. Positive numbers indicate an enhancement of the enzyme activity

[2] = test system: Alkaline Phosphatase (EC 3.1.3.1); assay: Alkaline Phosphatase [ALP/AP] Sigma Kit No. 245-10 gas run; type: biochemical, Chicken; parameters: Rate Difference / Yield Difference: unit not given here; conditions: for Yield Difference / Rate Difference: relative to air; for rate of the alkaline phosphatase-catalyzed reaction (FIGS. 1-3): 10°, 25° and 35° C., saturation with the gas
Text: Alkaline Phosphatase [ALP/AP] Sigma Kit. No. 245-10 Gas Run Protocol
Phosphatase, Alkaline P-8008
(Orthophosphoric-monoester phosphohydrolase [alkaline optimum]; EC 3.1.3.1)
From Chicken Intestine 5.1 Units/mg solid (1 g solid) Lot# 115F-3806
SIGMA Diagnostic Kit 245-10 (Procedure No. 245)
PRINCIPLE [drawing 1] The hydrolysis occurs at alkaline pH. The formation of p-nitrophenol can be observed as an increase in absorbance at 405 nm. The rate of increase directly proportional at ALP activity. […]
as §1

[3] = test system: Acid Phosphatase (EC 3.1.3.2); assay: Acid Phosphatase Sigma Kit No. 435-A gas run; type: biochemical, Potato; conditions: for rate of the acid phosphatase-catalyzed reaction (FIG. 4): 10° C., saturation with the gas; for % Rate Difference / % Yield Difference: relative to air
Text: Acid Phosphatase Sigma Kit. No. 435-A Gas Run Protocol
(Orthophosphoric-monoester phosphohydrolase [acid optimum)]; EC 3.1.3.2)
From Potato 0.8 Units/mg solid (1 g solid) Lot# 17F-7285
SIGMA Diagnostic Kit 435-A (Procedure No. 435)
PRINCIPLE [drawing 3] Acid phosphatase [ACP] catalyzes the hydrolysis of α-Naphthyl phosphate to a-Naphthol and inorganic phosphate. α-Naphthol immediately reacts with fast red TR salt to produce a yellow chromophore with an absorbance maximum at 405 nm. The rate of increase in absorbance at 405 nm is directly proportional to ACP activity. […]
as §1

[4] = target: T2, Alcohol dehydrogenase EC 1.1.1.1 (Saccharomyces cerevisiae, UniProt P00330); assay: Alcohol [Ethanol] Diagnostic Kit Sigma No. 332-UV gas run; type: biochemical, yeast; conditions: relative to air
T2 construct: purchased Sigma 330-1; host or cells: yeast
T2 sequence (P00330 1-348): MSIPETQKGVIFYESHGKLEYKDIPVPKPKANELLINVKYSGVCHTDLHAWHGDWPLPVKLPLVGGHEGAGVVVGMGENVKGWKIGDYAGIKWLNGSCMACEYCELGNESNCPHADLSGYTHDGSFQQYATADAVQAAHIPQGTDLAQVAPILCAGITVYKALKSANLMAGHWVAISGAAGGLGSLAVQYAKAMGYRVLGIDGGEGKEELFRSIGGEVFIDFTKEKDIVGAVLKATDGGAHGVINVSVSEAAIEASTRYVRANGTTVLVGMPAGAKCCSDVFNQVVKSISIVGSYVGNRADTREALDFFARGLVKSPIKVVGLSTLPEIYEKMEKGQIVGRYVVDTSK
Protocol: Alcohol [Ethanol] Diagnostic Kit Sigma Diagnostic Kit No. 332-UV Gas Run Protocol
SIGMA Diagnostic Kit 332-BT (Procedure No. 332-UV)
The NAD-ADH vials, when reconstituted according to the directions, contain approximately the following concentrations of active ingredients: NAD, 0.6 μmol/ml, alcohol dehydrogenase [yeast], 50 U/ml, and stabilizers. […]
Step 1: Prepare diluted Ethanol Standard Solution by mixing 4.0 ml Glycine Buffer Reagent (332-9) with 0.5 ml Ethanol Standard Solution (330-20). Cap until ready for use. 4 substrate concentrations: […]
Inject 1×3 cc of gas in silicone-sealed cuvettes No 2nd and 3rd 3 cc gas injection: NAD-ADH solution squirts back in the syringes because of foam formation due to bubbling. Store cuvettes overnight in refrigerator (0°-5° C.) under two 3 cc syringes, in the dark. […]
Remove the G1 cuvettes out from the fridge. Bubble 2×3 cc of gas. Place cuvettes (under two 3 cc syringes filled up with the appropriate gas) in cell holder.
Sample diluted Ethanol Standard Solution with 1 cc syringes, pick syringes into silicone, push plungers simultaneously, run timedrives.
as §1

[5] = test system: particulate sialidase; conditions: Sandhoff et al 1976; called questionable, highly impure enzymes; cited from earlier work
[6] = independent of oxygen partial pressure; Schreiner; cited from earlier work
[7] = 10 °C, positive = enhancement, negative = inhibition of enzyme activity

T1 sequence (P07374 whole entry, looked up): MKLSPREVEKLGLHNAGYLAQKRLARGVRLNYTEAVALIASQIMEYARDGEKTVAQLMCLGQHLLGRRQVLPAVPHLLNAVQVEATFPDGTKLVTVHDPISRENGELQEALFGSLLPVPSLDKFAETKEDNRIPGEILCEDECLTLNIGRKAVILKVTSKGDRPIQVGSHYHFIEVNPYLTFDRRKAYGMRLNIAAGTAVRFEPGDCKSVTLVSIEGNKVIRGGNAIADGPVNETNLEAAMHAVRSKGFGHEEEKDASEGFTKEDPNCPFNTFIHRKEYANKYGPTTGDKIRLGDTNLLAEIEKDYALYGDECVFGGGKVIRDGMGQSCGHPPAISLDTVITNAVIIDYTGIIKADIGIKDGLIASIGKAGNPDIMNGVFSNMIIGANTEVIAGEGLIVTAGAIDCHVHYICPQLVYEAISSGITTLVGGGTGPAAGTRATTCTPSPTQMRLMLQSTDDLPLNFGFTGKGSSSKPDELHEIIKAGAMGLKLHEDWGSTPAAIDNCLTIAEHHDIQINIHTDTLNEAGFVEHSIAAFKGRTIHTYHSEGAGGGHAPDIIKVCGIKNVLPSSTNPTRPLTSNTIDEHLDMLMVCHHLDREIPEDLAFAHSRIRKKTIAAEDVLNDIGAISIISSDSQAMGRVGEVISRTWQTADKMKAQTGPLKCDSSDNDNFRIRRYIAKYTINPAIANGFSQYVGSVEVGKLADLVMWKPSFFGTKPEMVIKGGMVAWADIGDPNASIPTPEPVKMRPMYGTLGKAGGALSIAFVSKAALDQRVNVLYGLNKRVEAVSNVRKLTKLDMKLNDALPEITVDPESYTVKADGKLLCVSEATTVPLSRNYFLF

Row | SMILES | % Rate Difference [1] [%] | Yield Difference ([2]; 10 °C) | Rate Difference [2, 7] | Rate Difference ([2]; 25 °C) | Yield Difference ([2]; 25 °C) | Rate Difference ([2]; 35 °C) | Yield Difference ([2]; 35 °C) | % Yield Difference [1] [%] | rate of the alkaline phosphatase-catalyzed reaction (FIGS. 1-3) [2] | rate of the acid phosphatase-catalyzed reaction (FIG. 4) [3] | % Rate Difference ([3]; 10 °C) [%] | % Yield Difference ([3]; 10 °C) [%] | % Rate Difference ([3]; 25 °C) [%] | % Yield Difference ([3]; 25 °C) [%] | % Rate Difference ([3]; 35 °C) [%] | % Yield Difference ([3]; 35 °C) [%] | % Rate Difference ([4]; 0.24% Ethanol, 10° C.) [%] | % Yield Difference ([4]; 0.24% Ethanol, 10° C.) [%] | % Rate Difference ([4]; 0.32% Ethanol, 10° C.) [%] | % Yield Difference ([4]; 0.32% Ethanol, 10° C.) [%] | other results
1 | N#N [N2, Nitrogen, reference compound] | 0.0 | 0 | 0 | 0 | 0 | 0 | 0 |  |  |  |  |  |  |  |  |  |  |  |  |  | 
2 | [Ar] [Ar, argon] | 9.4 | 33.3 | 33.3 | 3.0 | 3.0 | 30.4 | 30.4 | 9.4 | improvement of the rate | improvement of the rate | 8.4 | 9.4 | 12.2 | 9.2 | -1.4 | -0.42 | 9.0 | 8.3 | 5.2 | 2.3 | % Rate Difference ([4]; 0.08% Ethanol, 10° C.): 8.8%; % Rate Difference ([4]; 0.24% Ethanol, 25° C.): -9.4%; % Yield Difference ([4]; 0.24% Ethanol, 25° C.): -6.6%
3 | [Xe] [Xe, xenon] | 9.4 | 16.7 | 16.7 | 18.2 | 18.2 | 7.3 | 7.3 | 9.4 | improvement of the rate | improvement of the rate | 42.2 | 39.2 | 21.1 | 14.7 | 5.6 | 4.2 | 7.5 | 10.0 | 15.6 | 10.2 | effect on activity of particulate sialidase [5]: enhance the activity; % Rate Difference ([4]; 0.24% Ethanol, 25° C.): -10.4%; % Yield Difference ([4]; 0.24% Ethanol, 25° C.): -8.0%
4 | [Kr] [Kr, krypton] | 0.0 | 1.7 | 1.7 | 9.1 | 9.1 | 4.3 | 4.3 | 0.0 | improvement of the rate | improvement of the rate | 18.1 | 16.0 | 13.3 | 7.3 | 1.4 | 1.3 | 11.9 | 14.2 | 8.6 | 4.7 | % Rate Difference ([4]; 0.08% Ethanol, 10° C.): 2.9%; % Rate Difference ([4]; 0.24% Ethanol, 25° C.): -9.4%; % Yield Difference ([4]; 0.24% Ethanol, 25° C.): -4.4%
5 | [Ne] [Ne, neon] | 3.1 |  |  |  |  |  |  | 3.1 |  |  |  |  |  |  |  |  |  |  | 12.1 | 3.9 | 
6 | FC(F)(F)C(Cl)Br (centres unmarked) [halothane] |  |  |  |  |  |  |  |  |  |  |  |  |  |  |  |  |  |  |  |  | effect on activity of particulate sialidase [5]: enhance the activity
7 | [N-]=[N+]=O [nitrous oxide] |  |  |  |  |  |  |  |  |  |  |  |  |  |  |  |  |  |  |  |  | effect on activity of particulate sialidase [5]: enhance the activity; inhibition per atmosphere of added gas [6]: 1.9 % inhibition per atmosphere
